In assay [1] the target is T1, human PI3Kα protein (Homo sapiens, UniProt P42336).
T1 construct: purchased Carna Biosciences, Inc; host or cells: Baculovirus expression system
Kind of assay: PI3Kα enzyme assay (ADP-Glo kinase assay). In kind it is biochemical. As to conditions: 3 nM PI3Kα, 50 μM PIP2, 100 μM ATP. The method in brief:
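Baculovirus-expressed biotinylated human PI3Kα (3 nM) preincubated 15 min with compound in Tris pH 7.5, MgCl2, BSA, then reacted 60 min at 25 °C with 50 μM PIP2 and 100 μM ATP. ADP quantified by ADP-Glo luminescence; IC50 calculated.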

Assay [2] addresses T2, glutathione S-transferase (GST)-fusion human ERK2 protein (Homo sapiens, UniProt P28482).
T2 construct: purchased Carna Biosciences, Inc; host or cells: E. coli expression system
Kind of assay: ERK2 enzyme assay (LabChip mobility shift). In kind it is biochemical. Particulars: 2 nM ERK2, 4.25 μM FL-Peptide 8, 43 μM ATP. Put shortly:
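GST-tagged human ERK2 from E. coli, at 2 nM, was preincubated 15 min at room temperature with compound in Hepes pH 7.5 with MgCl2, DTT and Brij35. The reaction ran 120 min at 25 °C with 4.25 μM FL-Peptide 8 and 43 μM ATP (final). Phosphopeptide fraction was measured by mobility-shift separation to give IC50.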

[3] abbreviates: IC50 class, read-out: PI3Kα Inhibitory Activity.
Setting [4] is: IC50 class, read-out: ERK2 Inhibitory Activity.

Where two headings read alike, the source gives them in different places.

T1 sequence (P42336 whole entry): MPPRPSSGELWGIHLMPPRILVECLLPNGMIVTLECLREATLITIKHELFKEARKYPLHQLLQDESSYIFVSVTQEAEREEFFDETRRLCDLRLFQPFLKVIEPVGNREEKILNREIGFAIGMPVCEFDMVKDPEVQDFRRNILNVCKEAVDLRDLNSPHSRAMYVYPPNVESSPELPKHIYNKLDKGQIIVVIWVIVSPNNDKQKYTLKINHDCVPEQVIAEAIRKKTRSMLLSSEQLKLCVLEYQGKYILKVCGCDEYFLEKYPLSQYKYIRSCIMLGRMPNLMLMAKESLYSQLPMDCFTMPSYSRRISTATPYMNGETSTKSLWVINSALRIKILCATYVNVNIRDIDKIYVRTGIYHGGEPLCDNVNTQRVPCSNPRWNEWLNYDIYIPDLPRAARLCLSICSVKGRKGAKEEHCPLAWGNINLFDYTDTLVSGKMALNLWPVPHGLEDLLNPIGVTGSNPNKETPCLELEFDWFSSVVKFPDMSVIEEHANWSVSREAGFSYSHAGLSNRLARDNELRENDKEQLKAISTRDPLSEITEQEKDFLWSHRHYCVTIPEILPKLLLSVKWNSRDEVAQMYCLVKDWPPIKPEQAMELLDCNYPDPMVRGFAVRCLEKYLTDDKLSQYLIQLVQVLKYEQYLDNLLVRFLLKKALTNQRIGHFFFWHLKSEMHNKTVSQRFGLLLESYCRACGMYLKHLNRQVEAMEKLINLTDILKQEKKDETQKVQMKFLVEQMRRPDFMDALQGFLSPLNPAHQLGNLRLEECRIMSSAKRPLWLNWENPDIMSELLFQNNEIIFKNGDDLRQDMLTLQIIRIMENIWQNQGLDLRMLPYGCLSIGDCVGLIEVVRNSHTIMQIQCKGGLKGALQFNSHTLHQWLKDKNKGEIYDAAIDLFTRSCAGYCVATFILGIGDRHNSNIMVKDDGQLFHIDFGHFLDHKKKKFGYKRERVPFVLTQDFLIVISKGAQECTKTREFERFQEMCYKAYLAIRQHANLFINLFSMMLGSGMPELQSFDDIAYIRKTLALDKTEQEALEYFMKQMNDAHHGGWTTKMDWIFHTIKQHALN
T1 sequence (P27986 whole entry partner): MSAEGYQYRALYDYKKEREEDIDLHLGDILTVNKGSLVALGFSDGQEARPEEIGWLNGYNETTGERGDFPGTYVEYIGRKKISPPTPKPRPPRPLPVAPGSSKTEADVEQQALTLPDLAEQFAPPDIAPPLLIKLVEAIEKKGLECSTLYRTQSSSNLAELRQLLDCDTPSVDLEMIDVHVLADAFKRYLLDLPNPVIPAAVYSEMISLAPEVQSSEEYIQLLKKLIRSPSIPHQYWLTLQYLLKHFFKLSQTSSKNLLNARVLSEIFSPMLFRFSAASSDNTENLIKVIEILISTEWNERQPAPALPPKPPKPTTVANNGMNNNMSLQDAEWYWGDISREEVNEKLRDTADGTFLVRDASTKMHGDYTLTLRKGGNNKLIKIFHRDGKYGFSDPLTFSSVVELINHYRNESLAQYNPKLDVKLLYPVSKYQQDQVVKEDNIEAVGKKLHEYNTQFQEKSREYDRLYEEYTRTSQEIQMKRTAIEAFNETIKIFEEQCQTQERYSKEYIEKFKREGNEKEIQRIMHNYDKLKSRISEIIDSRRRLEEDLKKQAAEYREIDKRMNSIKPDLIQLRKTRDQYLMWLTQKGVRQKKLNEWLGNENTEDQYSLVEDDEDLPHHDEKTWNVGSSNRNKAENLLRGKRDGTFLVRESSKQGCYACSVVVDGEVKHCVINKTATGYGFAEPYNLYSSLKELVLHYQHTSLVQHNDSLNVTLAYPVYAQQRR
T2 sequence (P28482 whole entry, the tested form may be a part): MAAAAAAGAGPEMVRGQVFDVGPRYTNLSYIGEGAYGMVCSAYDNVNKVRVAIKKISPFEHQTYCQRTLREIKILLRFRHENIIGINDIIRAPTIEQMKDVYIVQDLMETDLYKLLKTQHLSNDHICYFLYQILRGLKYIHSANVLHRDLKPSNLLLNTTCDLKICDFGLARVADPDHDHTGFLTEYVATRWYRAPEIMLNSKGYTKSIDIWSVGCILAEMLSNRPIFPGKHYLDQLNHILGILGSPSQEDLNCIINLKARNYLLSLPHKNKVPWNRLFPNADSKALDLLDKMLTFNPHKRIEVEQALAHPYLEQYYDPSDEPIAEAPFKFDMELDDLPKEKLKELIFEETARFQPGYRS

`Cn1cncc1-c1cnc2ccc(NC(=O)NC3CCCC3)nc2c1` [Compound 0238]: the IC50 is 100 to 1000 nM in assay [1] (setting [3]) and less than 100 nM in assay [2] (setting [4]).

For `CN1CCN(c2cnc3ccc(NC(=O)NC4CCCC4)nc3c2)CC1=O` [Compound 0155], the IC50 in assay [1] (setting [3]) was less than 100 nM; in assay [2] (setting [4]), 100 to 1000 nM.

Turning to `CC1(NC(=O)Nc2ccc3ncc(-c4cnn(CCCN5CCNCC5)c4)cc3n2)CCCC1` [Compound 0256], the results for the IC50 in assay [1] (setting [3]) and in assay [2] (setting [4]) were less than 100 nM and 100 to 1000 nM, respectively.

For `COCCN(C)CCn1cc(-c2cnc3ccc(NC(=O)NC4CCCC4)nc3c2)cn1` [Compound 0037], the IC50 in assay [1] (setting [3]) and in assay [2] (setting [4]) was less than 100 nM in each case.

As for `COc1cc(-c2cnc3ccc(NC(=O)NC4CCCC4)nc3c2)ccn1` [Compound 0022], the IC50 in assay [1] (setting [3]) and in assay [2] (setting [4]) was less than 100 nM throughout.

On to `CO[C@H]1CCC[C@@H]1NC(=O)Nc1ccc2ncc(-c3cn[nH]c3)cc2n1` [Compound 0194], for which the IC50 in assay [1] (setting [3]) is 100 to 1000 nM; in assay [2] (setting [4]), less than 100 nM.

Turning to `CCCC(C)(C)NC(=O)Nc1ccc2ncc(-c3cn[nH]c3)cc2n1` [Compound 0184], the IC50 in assay [1] (setting [3]) and in assay [2] (setting [4]) was less than 100 nM throughout.

In the case of `O=C(NCCC(F)(F)F)Nc1ccc2ncc(-c3cn[nH]c3)cc2n1` [Compound 0115], the IC50 in assay [1] (setting [3]) and in assay [2] (setting [4]) was less than 100 nM throughout.

On to `CN(C)CCCn1cc(-c2cnc3ccc(NC(=O)NC4CCCC4)nc3c2)cn1` [Compound 0210], for which the IC50 in assay [1] (setting [3]) is less than 100 nM; in assay [2] (setting [4]) it was 100 to 1000 nM.

In the case of `O=C(Nc1ccc2ncc(-c3cnn(CCCN4CCNCC4)c3)cc2n1)NC1CCCC1` [Compound 0212], the IC50 in assay [1] (setting [3]) and in assay [2] (setting [4]) was less than 100 nM throughout.

Regarding `CC(C)NC(=O)Nc1ccc2ncc(-c3cn[nH]c3)cc2n1` [Compound 0053], the IC50 in assay [1] (setting [3]) and in assay [2] (setting [4]) was less than 100 nM in each case.

In the case of `O=C(NCCCCc1cccc(Cl)c1)Nc1ccc2ncc(-c3cn[nH]c3)cc2n1` [Compound 0166], the figures for the IC50 in assay [1] (setting [3]) and in assay [2] (setting [4]) were 100 to 1000 nM and less than 100 nM, respectively.

As to `CN(C)CCNC(=O)C1CCN(c2cnc3ccc(NC(=O)NC4CCCC4)nc3c2)CC1` [Compound 0150], the IC50 in assay [1] (setting [3]) was 100 to 1000 nM; in assay [2] (setting [4]), 1000 to 10000 nM.

On to `CCN1CCC(n2cc(-c3cnc4ccc(NC(=O)NC5CCCC5)nc4c3)cn2)CC1` [Compound 0230], for which the IC50 in assay [1] (setting [3]) was less than 100 nM; in assay [2] (setting [4]), 100 to 1000 nM.

For the compound `O=C(Nc1ccc2ncc(-c3cn[nH]c3)cc2n1)NC1CCN(Cc2ccccc2)C1` (centres unmarked) [Compound 0069], the IC50 in assay [1] (read-out: PI3Kα, IC50) was 133 nM; in assay [1] (setting [3]) it was 100 to 1000 nM; in assay [2] (read-out: ERK2, IC50), less than 3 nM; in assay [2] (setting [4]), less than 100 nM.

For `CC(C)(C)NC(=O)Nc1ccc2ncc(-c3cnn(CCCN4CCOCC4)c3)cc2n1` [Compound 0185], the results for the IC50 in assay [1] (setting [3]) and in assay [2] (setting [4]) were 1000 to 10000 nM and 100 to 1000 nM, respectively.

As to `O=C(Nc1ccc2ncc(-c3cn[nH]c3)cc2n1)NC1CCCCC1` [Compound 0061], the IC50 in assay [1] (setting [3]) and in assay [2] (setting [4]) was less than 100 nM each time.

As to `C[C@@H](NC(=O)Nc1ccc2ncc(-c3cn[nH]c3)cc2n1)C1CCCCC1` [Compound 0080], the IC50 in assay [1] (read-out: PI3Kα, IC50) is 60 nM; in assay [1] (setting [3]) it was less than 100 nM; in assay [2] (read-out: ERK2, IC50) it was less than 3 nM; in assay [2] (setting [4]) it was less than 100 nM.

Regarding `O=C(NCCCc1ccccc1)Nc1ccc2ncc(-c3cn[nH]c3)cc2n1` [Compound 0095], the IC50 in assay [1] (setting [3]) was 100 to 1000 nM; in assay [2] (setting [4]) it was less than 100 nM.

On to `O=C(Nc1ccc2ncc(-c3cccc(O)c3)cc2n1)NC1CCCC1` [Compound 0033], for which the IC50 in assay [1] (setting [3]) was 100 to 1000 nM; in assay [2] (setting [4]), less than 100 nM.

Consider `CC(C)N1CCC(n2cc(-c3cnc4ccc(NC(=O)NC5CCCC5)nc4c3)cn2)CC1` [Compound 0231], for which the IC50 is less than 100 nM in assay [1] (setting [3]) and 100 to 1000 nM in assay [2] (setting [4]).

For the compound `C[C@H](C[C@H](C)Oc1ccccc1)NC(=O)Nc1ccc2ncc(-c3cn[nH]c3)cc2n1` [Compound 0170], the IC50 in assay [1] (setting [3]) is 100 to 1000 nM; in assay [2] (setting [4]), less than 100 nM.

With `CN1CCC(n2cc(-c3cnc4ccc(NC(=O)NC5CCCC5)nc4c3)cn2)CC1` [Compound 0228], the IC50 in assay [1] (setting [3]) and in assay [2] (setting [4]) was less than 100 nM in each case.

Source of the values: patent US8841456B2, “1,5-naphthyridine derivative or salt thereof” (FUJIFILM Corporation, priority 2011, dated 2014).
